Laboratory results from the pKa sets of Baltruschat and Czodrowski (2020).

Conditions: basic group

SMILES	pKa
c1ccc(-c2ccnc3c2ccc2cccnc23)cc1	4.9
Cc1ccc(N)cc1CN	9.33
CC(C)SC(=N)c1ccccc1	8.04
C[Si](C)(C)OC1CN(Cc2ccc(F)cc2)C1	7.91
OC[C@H]1CCCN2CCCC[C@@H]12	10.2
c1ccc(-c2cc3c(-c4ccccc4)ccnc3c3ncccc23)cc1	4.69
Cn1c(-c2ccccn2)[nH+]c2ccccc21	-1.27
CC(=O)N=C(N(C)C)N(C)C	7.5
CCN(CC)CCCCC#N	10.1
CNc1cc[n+](C)c([O-])n1	4.47
CCNCC#CCNCC	8.32
CN(C)c1ccc([N+](=O)[O-])c2c(NCCC[NH+](C)C)c3ccccc3nc12	6.47
NCCC(=O)NC(Cc1c[nH]cn1)C(=O)[O-] (centres undefined)	9.48
C=CCN(C)CCOC(=O)C(=C)C	7.39
C[NH+](C)C[C@@H]1[C@@H](N)[C@]2(C)CC[C@@H]1C2(C)C	7.5
Cc1ncc2nccnc2n1	4.87
CC1CCN(O)C1(C)C (centres undefined)	5.9
C1N2CN3CN1CN(C2)C3	4.95
O=C([O-])[C@@H]1O[C@H](Oc2cnc3ccccc3c2)[C@@H](O)[C@H](O)[C@H]1O	3.95
c1ccc(C2CN3CCC2CC3)cc1 (centres undefined)	10.2
COc1ccc(-c2ncc(-c3ccc([NH3+])cc3)o2)cc1	0.85

SMILES	pKa
CCCCCn1ccnc1	7.12
Cc1ccccc1C(=NCCN(C)C)c1ccccc1C	8.5
Nc1ccccc1N	4.43
CC(=N\O)/C(CN(C)C)=N\O	8.4
CCCOC(=O)c1ccc(N)cc1	2.49
OCc1ccccn1	4.66
CCOCCn1c(CN2CCCN(CCCCn3cc(C(=O)[O-])cn3)CC2)nc2ccccc21	9.1
CN(C)c1cccc(C#N)c1	2.97
CCN(CC)CC(=N\[O-])/C(C)=N/O	11.9
Cc1cnccn1	1.42
Cc1ccc2nc3c(c(N4CCOCC4)c2c1)CCC3	7.18
O=C([O-])c1ccccn1	5.32
CC(C)CNC(C)C	10.6
COc1cccc(/N=C/N(C)C)c1	8.6
Nc1nnnn1-c1cccc(Cl)c1	0.7
CC1=Nc2ccc([N+](=O)[O-])cc2N=C(C)C1	4.95
CNNC1CCN(C(C)C)CC1	9.1
NCCCCc1ccncc1	10.2
C[Si](C)(C)OC1CN(Cc2ccc(Cl)cc2)C1	7.72
c1ccc2cc3ncccc3cc2c1	4.92
CC(C)NCC(=O)c1ccc([O-])cc1	9.58

SMILES	pKa
Cc1cnc2ccccc2c1	5.15
CC1=C(CC(C)NCC(O)c2ccc(F)cc2)CCC1(C)C (centres undefined)	8.51
Nc1nccc(-c2csc(N)n2)n1	4
CCNc1nc(Cl)nc(NC(C)C)n1	1.61
NCCBr	8.5
N[C@H]1C[C@@H]1[NH3+]	5.9
CCN(CC)CCOC(=O)c1ccc2ccccc2c1	7.52
[O-]c1cc2nc(c1)COCCOCCSCCOCCOC2	10.1
O=[PH]([O-])C(NCc1cccnc1)c1ccccc1O (centres undefined)	8.05
NCCCNCCCN	10.7
Cc1cc(NCCC[NH+](C)C)c2c([N+](=O)[O-])cccc2n1	6.41
C[NH2+]CC/C(N)=N/O	3.6
Cc1[nH]cnc1CSCCNC(=[NH2+])NCCCc1c[nH]cn1	7.26
NCc1ccc(Cl)cc1[N+](=O)[O-]	8.34
CC(C)N(C)/C=[NH+]/c1ccc(-c2c[nH]cn2)cc1	5.52
COc1c(N)cccc1C(=O)N[C@@H]1C[C@H]2CC[C@@H](C1)N2Cc1ccccc1	8.86
COc1ccc(C(O)c2ccccc2)cc1 (centres undefined)	-8
C/C=C1/CN2[C@@H]3C[C@H]1C1[C@@H](O)[C@]4(C[C@@H]12)c1ccccc1N(C)[C@@H]34 (some centres undefined)	8.5
[NH3+]CCc1ccncc1	4.98
CN(C)[C@H]1CCC[C@@H]1C#N	7.02
Cc1cc2nc[nH]c2cc1C	6.04

SMILES	pKa
C[NH2+]CC(=O)NCCc1c[nH]cn1	6.77
Clc1cnc2c(ccc3cccnc32)c1	3.99
O/N=C/c1cccnc1	3.94
O=C(O)c1ncccn1	-1.13
[NH3+]CCC(=O)N[C@@H](Cc1c[nH]cn1)C(=O)[O-]	6.89
Oc1ccccc1CNC1CCCCC1	8.67
CO[C@H]1CC=C2CCN3CCC(CO)=C(CCO)[C@]23C1	8.69
NCc1ccccc1	9.36
Cc1nn(-c2ccccc2)c(C(=O)[O-])c1C(=O)[O-]	5.89
COc1ccc(N)cc1	5.35
CC(O)CNCC(C)O (centres undefined)	8.88
Nc1ccc(C(=O)c2ccc([NH3+])cc2)cc1	1.37
C[C@@H]1CC[C@@H]2CCCN21	12
C=C[C@]1(O)C[C@@H](C)N[C@@H]2CCCC[C@H]21	9.98
CN(C)Cc1cc(/N=N/c2ccccc2)ccc1[O-]	10.2
Nc1ccc(S(=O)(=O)Nc2cccc[nH+]2)cc1	1
CC(C)NNC1CCN(C(C)C)CC1	9.55
C[NH+](C)CCCCCNc1c2ccccc2nc2cccc([N+](=O)[O-])c12	7.4
CCNCc1ccc(C)cc1	10
CNCCCNC	10.7
COC(=O)C(N)Cc1c[nH]cn1 (centres undefined)	7.35
